Measured values reported in the OligoGym collection.
Values joined by “and” are separate entries in the source; they are usually repeats but may differ in a detail not shown here. Equal values may be shown once. After the bases stand the sugars from the 5' end (letter, count) and the backbone: PS all phosphorothioate, else s phosphorothioate and o phosphodiester by linkage. Methylation of C is not given here. e = 2'-O-(2-methoxyethyl) (MOE); k = constrained ethyl (cEt); d = 2'-deoxy (DNA); m = 2'-O-methyl

Target: HSD17B13
Conditions: ASO, HepaRG

Sequence	target mRNA inhibition (1 µM)	also measured
GTCACCTTTCATAATG (sugars kkdddddddddkekek, PS)	4%	–
AGTTAGTATAGTTATC (sugars k3 d1 m1 d8 k3, PS)	42%	–
GAACAATCTCCCCAGC (sugars k3 d10 k3, PS)	63%	–
AGAAATCTAAGAACCC (sugars k3 d10 k3, PS)	25%	–
TATATGAGGTCTGTAT (sugars k3 d10 k3, PS)	42%	–
TATTATGTGATTGAGT (sugars k3 d1 m1 d8 k3, PS)	28%	–
GAGAATTGTTTAGTTC (sugars k3 d10 k3, PS)	47%	–
GCTTAGTACCAAGACA (sugars k3 d10 k3, PS)	62%	–
CCAAGGCTTATGAAGT (sugars k3 d10 k3, PS)	27%	–
CATAACTTCATAGTGG (sugars k3 d10 k3, PS)	31%	–
AAGAGTCAGTATCCTC (sugars kkdddddddddkekek, PS)	14%	–
CTGCTGAAACTTGATC (sugars k3 d10 k3, PS)	50%	–
TACATTAGCAAGCTAA (sugars k3 d10 k3, PS)	29%	–
CATAAAGCTGGATTGT (sugars k3 d10 k3, PS)	0%	–
TTAAAGACAGGGTGGT (sugars k3 d10 k3, PS)	21%	–
GCCCTAGATTCTACAC (sugars k3 d10 k3, PS)	15%	–
GTTTCTAGGTCAGTAG (sugars k3 d10 k3, PS)	73%	–
CTAGATACTCAATTTA (sugars k3 d10 k3, PS)	30%	–
ATACATTAGCAAGCTA (sugars kkdddddddddkekek, PS)	22%	–
ATAGTCCATGCAAAAG (sugars kkdddddddddkekek, PS)	31%	–
GCTAAACCCTGGAGCA (sugars k3 d10 k3, PS)	5%	–
TCCCAAGGCCTGAAGT (sugars k3 d10 k3, PS)	43%	–
AGGCACTAAAGGTTTC (sugars k3 d10 k3, PS)	61%	–
ATTATATGAGGTCTGT (sugars k3 d10 k3, PS)	59%	–
TTAAACTCCAATGTGT (sugars k3 d10 k3, PS)	36%	–

Sequence	target mRNA inhibition (1 µM)	also measured
AGGTTTTGATACCAGT (sugars k3 d10 k3, PS)	60%	–
TGCCAGGGAATGCTCA (sugars k3 d10 k3, PS)	23%	–
CTTAAGATACCCAGGT (sugars k3 d1 m1 d8 k3, PS)	50%	–
TAATCACAAGTAAGGT (sugars k3 d10 k3, PS)	54%	–
ACAGUCTTAAACCTTC (sugars k3 d1 m1 d8 k3, PS)	81%	target mRNA inhibition (0.02 µM): 19%; target mRNA inhibition (0.078 µM): 35%; target mRNA inhibition (0.313 µM): 41%; target mRNA inhibition (1.25 µM): 67%; target mRNA inhibition (5 µM): 85%
ATGTATCTTATAAGAC (sugars k3 d1 m1 d8 k3, PS)	3%	–
TTGTAATCTTGAGGCA (sugars k3 d10 k3, PS)	27%	–
CTATCTCCCTATTTGT (sugars k3 d10 k3, PS)	15%	–
ATAAACATAGGCTTAG (sugars k3 d10 k3, PS)	41%	–
AAGATACCCAGGTTGC (sugars k3 d10 k3, PS)	59%	–
CTTAAGATACCCAGGT (sugars k3 d10 k3, PS)	36%	–
CGTTTTGGGCTAATGA (sugars k3 d10 k3, PS)	48%	–
AGTCCAGAATAGAGTT (sugars k3 d10 k3, PS)	58%	–
TGCTAGTGCCAAACCA (sugars k3 d9 k3 e1, PS)	73%	target mRNA inhibition (0.02 µM): 8%; target mRNA inhibition (0.078 µM): 16%; target mRNA inhibition (0.313 µM): 38%; target mRNA inhibition (1.25 µM): 54%; target mRNA inhibition (5 µM): 71%
GATACTATTCTCCAAC (sugars k3 d10 k3, PS)	44%	–
TCCAAAAGTGTCCTCG (sugars k3 d10 k3, PS)	31%	–
GAATAGCAAGCCAACA (sugars k3 d10 k3, PS)	64%	target mRNA inhibition (0.02 µM): 0%; target mRNA inhibition (0.078 µM): 4%; target mRNA inhibition (0.313 µM): 12%; target mRNA inhibition (1.25 µM): 20%; target mRNA inhibition (5 µM): 40% and 50%
CCCTTTATGTCTTTGG (sugars k3 d10 k3, PS)	35%	–
GTGGCCATGATTTCTC (sugars k3 d10 k3, PS)	40%	–
CACATATGTGAAGAGC (sugars k3 d10 k3, PS)	71%	–
AGTATGACAACTGGAG (sugars k3 d10 k3, PS)	15%	–
ATACATTAGCAAGCTA (sugars k3 d9 k3 e1, PS)	48%	–
GTAATCACAAGTAAGG (sugars k3 d10 k3, PS)	70%	target mRNA inhibition (0.02 µM): 0%; target mRNA inhibition (0.078 µM): 12%; target mRNA inhibition (0.313 µM): 32%; target mRNA inhibition (1.25 µM): 70%; target mRNA inhibition (5 µM): 93%
ACTAATTTAGTCAACT (sugars k3 d10 k3, PS)	18%	–
ATTCGAAACTATTCAT (sugars k3 d10 k3, PS)	24%	–

Sequence	target mRNA inhibition (1 µM)	also measured
GCCTAAACAAACACTA (sugars k3 d10 k3, PS)	37%	–
AGTAGTGGAGCCAGAC (sugars k3 d10 k3, PS)	39%	–
CTGTAGGCTAAACCCT (sugars k3 d10 k3, PS)	47%	–
AAAATGGTGGCGAGGC (sugars k3 d10 k3, PS)	0%	–
AGAGAGCGATAGATCT (sugars k3 d10 k3, PS)	15%	–
GCAGUTATTAGAAGTC (sugars k3 d1 m1 d8 k3, PS)	59%	–
TAATTTTCGGGTTCTT (sugars k3 d10 k3, PS)	40%	–
ATCTCTTAGCTGTGCA (sugars k3 d10 k3, PS)	63%	–
TAGAGGGTCCACTTTT (sugars k3 d10 k3, PS)	36%	–
AATCCTATGCAAATTC (sugars k3 d10 k3, PS)	42%	–
GGGTCCATTGTTTCTT (sugars k3 d10 k3, PS)	21%	–
TGAACCCAGTATTCAC (sugars k3 d10 k3, PS)	10%	–
TCCCAACCCAAGCTAC (sugars k3 d10 k3, PS)	8%	–
ATGTAATAGCCAGTAC (sugars k3 d10 k3, PS)	52%	–
TTATGTAATAGCCAGT (sugars k3 d1 m1 d8 k3, PS)	56%	–
TAGAGTCGGTCACCTT (sugars k3 d10 k3, PS)	65%	–
GTCTAAACATCTCTGG (sugars kkdddddddddkekek, PS)	50%	–
TCTAAACATCTCTGGG (sugars kkdddddddddkekek, PS)	21%	–
CTTGAACAGTCTTAAA (sugars k3 d10 k3, PS)	39%	–
TAGTCCTAGGGAGGAG (sugars k3 d10 k3, PS)	68%	–
GGTAGCTTTTGTCCAC (sugars k3 d10 k3, PS)	66%	–
ACTTGATCTCTTAGCT (sugars k3 d9 k3 e1, PS)	59%	–
ACATTCTTCAGGTGTT (sugars k3 d10 k3, PS)	88%	target mRNA inhibition (0.02 µM): 0%; target mRNA inhibition (0.078 µM): 20%; target mRNA inhibition (0.313 µM): 48%; target mRNA inhibition (1.25 µM): 80%; target mRNA inhibition (5 µM): 90%
GGTGGTAACGGTGATC (sugars k3 d1 m1 d8 k3, PS)	35%	–
GAGAAGGCGGTATCAT (sugars k3 d10 k3, PS)	48%	–

Sequence	target mRNA inhibition (1 µM)	also measured
CACTGGATGGATTTCT (sugars k3 d10 k3, PS)	72%	–
CTGATTACAGCATCAA (sugars k3 d10 k3, PS)	40%	–
GTAATCAGTTTTCCTC (sugars k3 d10 k3, PS)	79%	target mRNA inhibition (0.02 µM): 0%; target mRNA inhibition (0.078 µM): 0%; target mRNA inhibition (0.313 µM): 11%; target mRNA inhibition (1.25 µM): 36%; target mRNA inhibition (5 µM): 73%
GATTGGAATGCTACTT (sugars k3 d10 k3, PS)	58%	–
ATAGGCAGTAAAGTGC (sugars k3 d10 k3, PS)	56%	–
GCATTATTCACCACGA (sugars k3 d10 k3, PS)	59%	–
CTTGACTAAGGAGCTA (sugars k3 d10 k3, PS)	24%	–
AACAGTTTAGATTGCA (sugars k3 d10 k3, PS)	71%	–
TAAAAATTGGCCTCCT (sugars k3 d10 k3, PS)	29%	–
TTATGTAATAGCCAGT (sugars kkdddddddddkekek, PS)	63%	–
CTGGTAAAGGTAAGGG (sugars k3 d10 k3, PS)	58%	–
AGAATAGAGTTGCACC (sugars k3 d10 k3, PS)	70%	–
CTGCAAAGTTAATAGG (sugars k3 d10 k3, PS)	57%	–
ATAGGACATGGAGACA (sugars k3 d10 k3, PS)	82%	target mRNA inhibition (0.02 µM): 14%; target mRNA inhibition (0.078 µM): 18%; target mRNA inhibition (0.313 µM): 48%; target mRNA inhibition (1.25 µM): 74%; target mRNA inhibition (5 µM): 79%
CATCTACATGGATCCA (sugars k3 d10 k3, PS)	63%	–
GTAAGGAGTAGTGGAG (sugars k3 d10 k3, PS)	37%	–
GTCAAAAACCGTCAAA (sugars k3 d10 k3, PS)	39%	–
GCATCTTAAGATACCC (sugars kkdddddddddkekek, PS)	41%	–
TCATAGTGGACTTCAT (sugars k3 d9 k3 e1, PS)	54%	–
GAGTATTTCCTCTGGG (sugars k3 d10 k3, PS)	23%	–
AGTTCTGATGTCAGAC (sugars k3 d10 k3, PS)	40%	–
AGAGCCAAACTGCTAC (sugars k3 d10 k3, PS)	55%	–
TTAGAGAGCGATAGAT (sugars k3 d10 k3, PS)	23%	–
